How the values were obtained:
Assay type in all cases: cell-based, human
[1] = tested on: cord-blood derived NK cells; assay: Expression of CXCR4, CD49e and CD62L receptors on cultured cord blood NK cells (FACS); conditions: 2.5 or 5 mM nicotinamide, three weeks, vs cytokines only
Protocol: 2. Purified CD56+ or CD56+CD3− cells from total nuclear or mononuclear cells or from the fraction depleted from CD34+ or CD133+ cells were cultured in culture bags, T-Flasks or 24 well plates at a concentration of 1-100×10^4 cells/ml in MEMα/10% FCS or CellGro SCGM (Cell Genix)/5% Human Serum/LiforCell® FBS Replacement (Lifeblood Products) containing the following human recombinant cytokines:, interleukin-2 (IL-2) (5-50 ng/ml), interleukin-15 (IL-15), FLT-3 or SCF or FLT3 and SCF or IL-2 and IL-15 or IL-2 only (Perpo Tech, Inc., Rocky Hill, N.J., USA), with or without nicotinamide, and incubated at 37° C. in a humidified atmosphere of 5% CO2 in air. The cultures were topped up once or twice a week with the same volume of fresh medium containing growth factors with or without nicotinamide. Eventually cultures can be supplemented once or several times a week with IL-2 and or IL-2 and IL-15. To estimate the number of cells in culture, cell samples were stained with trypan blue for counting. At various time points, samples were taken for FACS analysis to assay the relative fractions of NK cells, CD56+CD3−, CD56+CD3+, CD34+CD56+, CD56+CD16+ and/or CD56+ NKG2A cells.
The cells were washed with a PBS solution containing 1% BSA, and stained (at 4° C. for 30 min) with fluorescein isothiocyanate (FITC)- or phycoerythrin (PE)-conjugated antibodies or allophycocyanin (APC). The cells were then washed in the above buffer and analyzed using a FACScalibur® flow cytometer (Becton Dickinson, San Jose, Calif., USA). The cells were passed at a rate of up to 1000 cells/second, using a 488 nm or 661 nm argon laser beam as the light source for excitation. Emission of 10^4 cells was measured using logarithmic amplification, and analyzed using the CellQuest software (Becton Dickinson). Cells stained with FITC, PE and APC-conjugated isotype control antibodies were used to determine background fluorescence.

[2] = tested on: peripheral blood CD56+ NK cells; assay: Proliferation of peripheral blood CD56+ NK cells co-cultured with irradiated feeder cells; conditions: 2.5 mM and 5 mM nicotinamide, day 21, irradiated feeder cells 10:1
Description: NK cell cells from total mononuclear cell fraction, purified CD56+ or CD56+CD3− cells from total nuclear or mononuclear cells or from the fraction depleted from CD34+ or CD133+ cells, or CD3+ depleted, or CD3+/CD19+ depleted mononuclear cell fraction from PB, BM and CB can be cultured with irradiated stroma. For the preparation of irradiated stroma (feeder cells), mononuclear cells were irradiated with 3000 rad. After CD56 or CD56+CD3− selection or CD3 depletion the cells were counted and characterized by FACS analysis as described hereinabove. Cells were cultured as described hereinabove, with and without nicotinamide, with and without irradiated stroma at a concentration of irradiated cells of 20×10^5 cells/ml.
To determine total number of cells on day 7, 14 and 21, the cell count/ml was multiplied by the volume of the culture medium. In order to determine the number of NK cells in culture, the total number of cells in culture was multiplied by the percent of CD56+/CD3− cells measured with the FACS on days 7, 14 or 21. To measure fold expansion, total number of NK cells on days 7, 14 and 21 was divided by total number of NK cells seeded in culture on day-0.
(§1) Peripheral blood-derived mononuclear cell fractions were CD3 depleted and then selected for CD56+ cells by immunobead purification. […]

K562 target cells = assay: Killing assay, NK cells expanded with irradiated feeder cells; conditions: 5:1, 2.5:1 and 1:1 NK cells per target cell
Protocol: “Killing” assay: NK cells (effectors cells=E) are combined with K562 or BL2 (target cells=T), or bi-phenotypic leukemia cells at different E to T ratio (E:T). BL2 or K562, or bi-phenotypic leukemia target cells in PBS were labeled with 1 ng/ml CFSE (Invitrogen) for 15 min at 37° C. Calf Serum was added to the cells for 15 minutes, the cells were then washed and resuspended in RPMI medium. 100 μL of bi-phenotypic leukemia, BL2 or K562 cells were placed in a 96 round bottom plate at a concentration of 5×10^3 cells per well. 100 μL of non-stained NK cells were added to the bi-phenotypic leukemia, BL2 or K562 cells at a E:T ratio of 1:1, 2.5:1, 5:1, 10:1 or 20:1 (5×10^3, 1.25×10^4, 2.5×10^4, 5×10^4 and 1×10^5 cells/well, respectively, as indicated). Between 2-48 hours later. Killing of target cells in cell lines such as K562 and BL-2 was determined by FACS as a percentage propidium-iodine (PI)-positive (dead) CFSE-labeled cells. Killing of the primary leukemia cells was determined by counting with the FACS the number of CFSE stained cells that remained in the culture after their culture with the NK cells. A lower number of CFSE+ cells is indicative of higher level of killing.
as §1

[3] = tested on: CD3+ T cells and CD3+CD56+ NKT cells; assay: T and NKT cell fractions in peripheral blood NK cell cultures (FACS); conditions: increasing nicotinamide concentration (2.5 to 7.5 mM), three weeks
Protocol: Purified CD56+ or CD56+CD3− cells from total nuclear or mononuclear cells or from the fraction depleted from CD34+ or CD133+ cells were cultured in culture bags, T-Flasks or 24 well plates at a concentration of 1-100×10^4 cells/ml in MEMα/10% FCS or CellGro SCGM (Cell Genix)/5% Human Serum/LiforCell® FBS Replacement (Lifeblood Products) containing the following human recombinant cytokines:, interleukin-2 (IL-2) (5-50 ng/ml), interleukin-15 (IL-15), FLT-3 or SCF or FLT3 and SCF or IL-2 and IL-15 or IL-2 only (Perpo Tech, Inc., Rocky Hill, N.J., USA), with or without nicotinamide, and incubated at 37° C. in a humidified atmosphere of 5% CO2 in air. The cultures were topped up once or twice a week with the same volume of fresh medium containing growth factors with or without nicotinamide. […]
The cells were washed with a PBS solution containing 1% BSA, and stained (at 4° C. for 30 min) with fluorescein isothiocyanate (FITC)- or phycoerythrin (PE)-conjugated antibodies or allophycocyanin (APC). The cells were then washed in the above buffer and analyzed using a FACScalibur® flow cytometer (Becton Dickinson, San Jose, Calif., USA). […] Emission of 10^4 cells was measured using logarithmic amplification, and analyzed using the CellQuest software (Becton Dickinson). Cells stained with FITC, PE and APC-conjugated isotype control antibodies were used to determine background fluorescence. […]

With `NC(=O)c1cccnc1` [nicotinamide] the “expression of CD49e (adhesion receptor)” value [1] was “elevated expression”, the “expression of CD62L (trafficking receptor)” value [1] was “strongly enhanced expression” and the “expression of CXCR4 (migratory receptor)” value [1] was “strongly enhanced expression”. The “fold increase of NK cells relative to control (cytokines+irradiated mononuclear cells)” value [2] was “at least 4 times”, the ex-vivo killing potential (K562 target cells) was “increased cytotoxic capability” and the “fraction of CD3+ T cells” value [3] was “reduction”. For the same molecule, the “fraction of CD3+CD56+ NKT cells” value [3] was “reduction”.
